Values of other authors in publication PMC5572576 (The Lancet. Oncology, 2017).

Key:
[1] = test system: FLT3; details: cell-based assays; cited from earlier work
[2] = molecular target: leukocyte receptor tyrosine kinase (LTK); details: panel of 78 kinases; cited from earlier work

## CCc1nc(C(N)=O)c(Nc2ccc(N3CCC(N4CCN(C)CC4)CC3)c(OC)c2)nc1NC1CCOCC1 [gilteritinib]
[1]
  IC50: […]
[2]
  kinase inhibition: strong inhibitor
